The text below walks through data of patent US20250177363A1, “SUBSTITUTED IMIDAZOPYRIDINYL COMPOUNDS USEFUL AS INHIBITORS OF TLR9” (Bristol-Myers Squibb Company, priority 2022, published 2025).

Type in all cases: cell-based
The target of one test is T1, human TLR9 (Homo sapiens, UniProt Q9NR96).
T1 construct: host or cells: HEK-Blue cells
T1 sequence (Q9NR96 26-1032): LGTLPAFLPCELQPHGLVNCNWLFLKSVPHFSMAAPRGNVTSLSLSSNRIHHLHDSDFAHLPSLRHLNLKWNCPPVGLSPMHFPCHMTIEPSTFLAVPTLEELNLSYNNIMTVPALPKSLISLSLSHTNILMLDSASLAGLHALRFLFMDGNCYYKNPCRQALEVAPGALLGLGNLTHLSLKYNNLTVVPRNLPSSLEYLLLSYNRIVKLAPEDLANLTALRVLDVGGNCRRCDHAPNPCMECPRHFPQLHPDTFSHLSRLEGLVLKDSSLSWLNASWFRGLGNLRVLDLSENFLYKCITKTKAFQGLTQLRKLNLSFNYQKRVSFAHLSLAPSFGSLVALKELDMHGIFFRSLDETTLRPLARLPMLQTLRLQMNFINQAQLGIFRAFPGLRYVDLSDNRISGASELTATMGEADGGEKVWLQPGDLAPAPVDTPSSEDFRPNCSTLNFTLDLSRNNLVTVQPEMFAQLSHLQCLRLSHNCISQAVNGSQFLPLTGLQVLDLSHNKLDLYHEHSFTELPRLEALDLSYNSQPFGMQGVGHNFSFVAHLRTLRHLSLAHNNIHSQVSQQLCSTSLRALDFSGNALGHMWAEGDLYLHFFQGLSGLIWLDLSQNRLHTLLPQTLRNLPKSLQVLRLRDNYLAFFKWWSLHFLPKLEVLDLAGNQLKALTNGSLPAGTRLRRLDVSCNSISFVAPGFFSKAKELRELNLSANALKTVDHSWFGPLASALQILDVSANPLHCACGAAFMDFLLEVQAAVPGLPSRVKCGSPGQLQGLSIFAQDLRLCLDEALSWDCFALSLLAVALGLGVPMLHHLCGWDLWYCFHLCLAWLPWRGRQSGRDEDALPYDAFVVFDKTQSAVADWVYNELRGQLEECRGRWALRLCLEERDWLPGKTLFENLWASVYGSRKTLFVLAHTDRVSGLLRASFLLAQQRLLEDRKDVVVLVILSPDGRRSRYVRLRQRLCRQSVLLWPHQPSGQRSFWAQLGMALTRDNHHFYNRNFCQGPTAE
Nature of the test: TLR9 inhibition reporter assay (HEK-Blue, SEAP). The settings on record: HEK-Blue cells overexpressing human TLR9, ligand ODN2006 200 nM, 22 hour incubation. As for the experimental part:
(§1) TLR7/8/9 Inhibition Reporter Assays
(§2) HEK-Blue™-cells (Invivogen) overexpressing human TLR7. TLR8 or TLR9 receptors were used for screening inhibitors of these receptors using an inducible SEAP (secreted embryonic alkaline phosphatase) reporter gene under the control of the IFN-β minimal promoter fused to five NF-κB and AP-1-binding sites. Cells are seeded into Greiner 384 well plates (15000 cells per well) that are pre dispensed (by ECHO) with testing compounds in DMSO to yield a final dose response concentration range of 0.85 nM-50 μM. After a 60 minute compound pre-treatment in 37 degree incubator, the cells are then stimulated with a TLR7 ligand (gardiquimod at a final concentration of 2.5 μM), TLR8 ligand (R848 at a final concentration of 14.25 μM) or TLR9 ligand (ODN2006 at a final concentration of 200 nM) to activate NF-κB and AP-1 which induce the production of SEAP. After a 22 hour incubation at 37° C., 5% CO2, SEAP levels are determined with the addition of HEK-Blue™ Detection reagent (Invivogen), a cell culture medium that allows for detection of SEAP, according to manufacturer's specifications. The percent inhibition is determined as the % reduction in the HEK-Blue signal present in […].

In the next test the target is T2, human TLR7 (Homo sapiens, UniProt Q9NYK1).
T2 construct: host or cells: HEK-Blue cells
T2 sequence (Q9NYK1 27-1049): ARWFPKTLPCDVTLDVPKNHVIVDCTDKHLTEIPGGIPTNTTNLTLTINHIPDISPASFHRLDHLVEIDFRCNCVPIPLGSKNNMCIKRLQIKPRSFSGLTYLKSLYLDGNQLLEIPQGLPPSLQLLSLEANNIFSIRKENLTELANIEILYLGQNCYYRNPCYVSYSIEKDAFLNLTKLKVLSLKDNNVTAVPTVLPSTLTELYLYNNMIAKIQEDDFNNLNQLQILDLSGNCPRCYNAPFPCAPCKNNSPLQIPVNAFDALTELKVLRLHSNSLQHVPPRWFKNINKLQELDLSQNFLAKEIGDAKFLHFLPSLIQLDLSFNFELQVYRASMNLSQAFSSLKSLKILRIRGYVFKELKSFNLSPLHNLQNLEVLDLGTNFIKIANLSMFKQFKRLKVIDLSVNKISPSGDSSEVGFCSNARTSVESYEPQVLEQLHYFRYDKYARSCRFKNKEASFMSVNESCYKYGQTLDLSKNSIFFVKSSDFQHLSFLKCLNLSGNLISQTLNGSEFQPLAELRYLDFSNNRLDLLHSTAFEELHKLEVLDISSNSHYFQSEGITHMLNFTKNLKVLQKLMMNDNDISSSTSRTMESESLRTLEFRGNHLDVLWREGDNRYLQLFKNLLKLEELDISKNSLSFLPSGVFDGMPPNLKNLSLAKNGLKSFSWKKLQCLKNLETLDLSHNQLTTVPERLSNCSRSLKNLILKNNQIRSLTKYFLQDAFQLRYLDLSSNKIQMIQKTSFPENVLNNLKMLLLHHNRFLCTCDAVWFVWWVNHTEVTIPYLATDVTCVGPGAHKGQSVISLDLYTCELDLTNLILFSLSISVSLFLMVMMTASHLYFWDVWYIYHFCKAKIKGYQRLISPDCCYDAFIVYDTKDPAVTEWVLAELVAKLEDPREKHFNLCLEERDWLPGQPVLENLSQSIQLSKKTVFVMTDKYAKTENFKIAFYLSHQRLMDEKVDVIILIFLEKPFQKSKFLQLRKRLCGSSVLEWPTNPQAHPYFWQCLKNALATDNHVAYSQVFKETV
Nature of the test: TLR7 inhibition reporter assay (HEK-Blue, SEAP). Conditions: HEK-Blue cells overexpressing human TLR7, ligand gardiquimod 2.5 μM, 22 hour incubation. As for the experimental part:
as §1, §2

In another test the target is T3, human TLR8 (Homo sapiens, UniProt Q9NR97).
T3 construct: host or cells: HEK-Blue cells
T3 sequence (Q9NR97 27-1041): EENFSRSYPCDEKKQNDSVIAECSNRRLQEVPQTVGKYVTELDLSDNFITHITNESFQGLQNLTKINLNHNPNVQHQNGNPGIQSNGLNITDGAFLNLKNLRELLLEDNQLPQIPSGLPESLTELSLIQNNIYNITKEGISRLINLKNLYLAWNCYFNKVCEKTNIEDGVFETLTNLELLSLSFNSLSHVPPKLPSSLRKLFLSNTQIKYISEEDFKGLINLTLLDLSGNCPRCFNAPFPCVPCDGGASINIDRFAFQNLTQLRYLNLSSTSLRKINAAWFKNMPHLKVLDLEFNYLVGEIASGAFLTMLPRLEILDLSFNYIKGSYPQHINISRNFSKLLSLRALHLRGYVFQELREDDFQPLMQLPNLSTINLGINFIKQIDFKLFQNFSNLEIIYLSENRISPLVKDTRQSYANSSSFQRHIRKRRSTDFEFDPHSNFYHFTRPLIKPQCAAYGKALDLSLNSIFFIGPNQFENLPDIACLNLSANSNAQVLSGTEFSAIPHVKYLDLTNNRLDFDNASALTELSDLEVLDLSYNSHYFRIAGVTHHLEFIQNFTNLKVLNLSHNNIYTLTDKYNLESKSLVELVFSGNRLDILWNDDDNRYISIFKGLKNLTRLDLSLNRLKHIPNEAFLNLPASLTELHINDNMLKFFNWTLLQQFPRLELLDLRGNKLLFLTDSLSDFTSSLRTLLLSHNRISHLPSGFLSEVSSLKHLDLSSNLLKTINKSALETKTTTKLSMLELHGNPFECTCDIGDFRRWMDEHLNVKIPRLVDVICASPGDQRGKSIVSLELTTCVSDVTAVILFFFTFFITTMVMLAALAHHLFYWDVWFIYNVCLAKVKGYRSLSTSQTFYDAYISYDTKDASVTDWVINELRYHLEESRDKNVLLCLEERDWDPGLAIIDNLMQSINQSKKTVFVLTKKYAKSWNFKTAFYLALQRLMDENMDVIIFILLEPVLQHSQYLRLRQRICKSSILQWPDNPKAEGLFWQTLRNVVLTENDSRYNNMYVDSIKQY
The test can be described thus: TLR8 inhibition reporter assay (HEK-Blue, SEAP). The settings on record: HEK-Blue cells overexpressing human TLR8, ligand R848 14.25 μM, 22 hour incubation. As for the experimental part:
as §1, §2

On to `Cc1cc(C2CCN(C3CC4CCC(C3)N4CC(C)C)CC2)nc2c1nc(-c1ccc(S(C)(=O)=O)cc1)n2C` (single isomer, unassigned) [Example 28, 5-(1-(8-isobutyl-8-azabicyclo[3.2.1]octan-3-yl)piperidin-4-yl)-3,7-dimethyl-2-(4-(methylsulfonyl)phenyl)-3H-imidazo[4,5-b]pyridine], for which the IC50 is 79 nM against human TLR9, 1.4 µM against human TLR7 and above 50 µM against human TLR8.
In the case of `Cc1cc(C2CCN(C3CC4CCC(C3)N4CC3CC3)CC2)nc2c1nc(-c1ccc(S(C)(=O)=O)cc1)n2C` (single isomer, unassigned) [Example 30, 5-(1-(8-(cyclopropylmethyl)-8-azabicyclo[3.2.1]octan-3-yl)piperidin-4-yl)-3,7-dimethyl-2-(4-(methylsulfonyl)phenyl)-3H-imidazo[4,5-b]pyridine], the IC50 was 60 nM on human TLR9, 2.9 µM against human TLR7 and above 50 µM against human TLR8.
For `Cc1cc(C2CCN(C3CC4CCC(C3)N4CC3CC3)CC2)nc2c1nc(-c1ccc(S(C)(=O)=O)cc1)n2C` (single isomer, unassigned) [Example 31, 5-(1-(8-(cyclopropylmethyl)-8-azabicyclo[3.2.1]octan-3-yl)piperidin-4-yl)-3,7-dimethyl-2-(4-(methylsulfonyl)phenyl)-3H-imidazo[4,5-b]pyridine] the same measures were 240 nM, 7.2 µM and 19 µM.
For `Cc1cc(C2CCN(C3CC4CCC(C3)N4C3CCOCC3)CC2)nc2c1nc(-c1ccc(S(C)(=O)=O)cc1)n2C` (single isomer, unassigned) [Example 34, 3,7-dimethyl-2-(4-(methylsulfonyl)phenyl)-5-(1-(8-(tetrahydro-2H-pyran-4-yl)-8-azabicyclo[3.2.1]octan-3-yl)piperidin-4-yl)-3H-imidazo[4,5-b]pyridine] the same measures were 37 nM, 5.7 µM and above 50 µM.
As to `Cc1cc(C2CCN(C3CC4CCC(C3)N4C3CCOCC3)CC2)nc2c1nc(-c1ccc(S(C)(=O)=O)cc1)n2C` (single isomer, unassigned) [Example 35, 3,7-dimethyl-2-(4-(methylsulfonyl)phenyl)-5-(1-(8-(tetrahydro-2H-pyran-4-yl)-8-azabicyclo[3.2.1]octan-3-yl)piperidin-4-yl)-3H-imidazo[4,5-b]pyridine], the figures for the IC50 on human TLR9, on human TLR7 and on human TLR8 were 340 nM, 7.4 µM and above 50 µM, respectively.
For `Cc1cc(-c2ccc(CN3CC4(C3)CN(C3CCC3)C4)cc2)nc2c1nc(-c1ccc(S(C)(=O)=O)cc1)n2C1CC1` [Example 1, 5-(4-((6-cyclobutyl-2,6-diazaspiro[3.3]heptan-2-yl)methyl)phenyl)-3-cyclopropyl-7-methyl-2-(4-(methylsulfonyl)phenyl)-3H-imidazo[4,5-b]pyridine] the same measures were 130 nM, 8.1 µM and 27 µM.
As to `Cc1cc(-c2ccc(CN3CCC(N4CCCC4)CC3)cc2)nc2c1nc(-c1ccc(S(C)(=O)=O)cc1)n2C1CC1` [Example 2, 3-cyclopropyl-7-methyl-2-(4-(methylsulfonyl)phenyl)-5-(4-((4-(pyrrolidin-1-yl)piperidin-1-yl)methyl)phenyl)-3H-imidazo[4,5-b]pyridine], the IC50 was found to be 100 nM at human TLR9, 7.2 µM on human TLR7 and 31 µM against human TLR8.
In the case of `Cc1cc(-c2ccc(CN3CC4(C3)CN(C(C)C)C4)cc2)nc2c1nc(-c1ccc(S(C)(=O)=O)cc1)n2C1CC1` [Example 3, 3-cyclopropyl-5-(4-((6-isopropyl-2,6-diazaspiro[3.3]heptan-2-yl)methyl)phenyl)-7-methyl-2-(4-(methylsulfonyl)phenyl)-3H-imidazo[4,5-b]pyridine], the IC50 against human TLR9 was 190 nM; on human TLR7, 0.71 µM; against human TLR8 it was above 50 µM.
For `Cc1cc(-c2ccc(CN3CC4(C3)CN(C3CCOCC3)C4)cc2)nc2c1nc(-c1ccc(S(C)(=O)=O)cc1)n2C1CC1` [Example 5, 3-cyclopropyl-7-methyl-2-(4-(methylsulfonyl)phenyl)-5-(4-((6-(tetrahydro-2H-pyran-4-yl)-2,6-diazaspiro[3.3]heptan-2-yl)methyl)phenyl)-3H-imidazo[4,5-b]pyridine] the same measures were 320 nM, 0.2 µM and 0.26 µM.
